The subject of data set [1] is BCL6 reporter. As to the kind of experiment: BCL6 reporter assay (GFP) in KARPAS422 cells. Particulars: KARPAS422, 8 hours. The class given is cell-based, human. The method, then:
KARPAS422 cells were lentivirally transduced with a construct containing the reporter. […] Cells were washed in 2.5% FBS/PBS, 1:250 v/v of 7-AAD was added to distinguish live from dead cells, and harvested for flow cytometry on a BD Accuri. The GFP-positive gate were drawn off non-transduced cells and normalized to cells treated with DMSO.
Background: A reporter such as luciferase makes a cellular process visible.

In data set [2] the test system is KARPAS422. As to the kind of experiment: Annexin V / 7-AAD apoptosis assay in KARPAS422 cells. The class given is cell-based, human. On the procedure:
For annexin V assays, 500,000 cells plated at 1 M/mL treated with drug for indicated timepoints and doses were harvested on ice and washed twice in 2.5% FBS/PBS. 2.5 μL of 7-AAD and 2.5 μL of FITC-Annexin V (Biolegend #640922) were added. Cells were incubated for 15 minutes at RT, then immediately measured on a BD Accuri. Gates were drawn based off single-stain and no-stain controls. For cell cycle and TUNEL analysis, cells plated at 1 M/mL were treated with drug for indicated timepoints and doses and pulsed with 10 μM ethynyl-EdU (Thermo #C10424) for 2 hours prior to harvesting on ice. 1 M cells were counted and washed in 2.5% FBS/PBS. Cells were resuspended at 10 M/mL and fixed in 4% PFA, washed, and permeabilized in 0.5% Triton-X100/PBS. […] After washes, the sample was incubated with 2 μL 7-AAD and 5 μL RNAseA for 30 minutes at RT in the dark, washed, and measured on a BD Accuri. Gates were drawn based off single-stain and no-stain controls and kept constant across conditions.

In data set [3] the test system is KARPAS422. Nature of the data set: Cell cycle and TUNEL analysis in KARPAS422 cells. The class given is cell-based, human. The method, then: Cells were incubated for 15 minutes at RT, then immediately measured on a BD Accuri. Gates were drawn based off single-stain and no-stain controls. For cell cycle and TUNEL analysis, cells plated at 1 M/mL were treated with drug for indicated timepoints and doses and pulsed with 10 μM ethynyl-EdU (Thermo #C10424) for 2 hours prior to harvesting on ice. 1 M cells were counted and washed in 2.5% FBS/PBS. Cells were resuspended at 10 M/mL and fixed in 4% PFA, washed, and permeabilized in 0.5% Triton-X100/PBS. […] Gates were drawn based off single-stain and no-stain controls and kept constant across conditions. Cancers can evade cell killing by many chemotherapeutics that function only during a specific stage of the cell cycle. […] The assay allows the analysis of the percentage of apoptotic cells in each cell population: G0/G1, G2/M, and S phase cells (FIG. 34). […] The finding implies that unlike many conventional chemotherapeutics, BRD4-BCL6-TCIPs could kill cancer cells without periods of potential insensitivity.

The subject of data set [4] is BCL6 mRNA. Nature of the data set: RT-qPCR of BCL6 isoforms. The class given is cell-based, human. Particulars: 10 nM. The method, then: 12. RNA Extraction, qPCR, and Sequencing Library Preparation Cells were plated at 1 M/mL and harvested in TRIsure (Bioline #38033). RNA was extracted using Direct-zol RNA MicroPrep columns (Zymo #R^2062) treated with DNAseI. cDNA was prepared for RT-qPCR using the SensiFAST cDNA preparation kit according to manufacturer instructions (Bioline #65054). 1 μL of cDNA was used per RT-qPCR reaction prepared with SYBR Lo-ROX (Bioline #94020). For sequencing library preparation, polyA-containing transcripts were enriched for (NEB #E7490S) and prepared into paired-end libraries (NEB #E7760S). Libraries were sequenced on an Illumina NovaSeq (Novogene). 13. Western Blots
Thus, TCIPs can rewire a repressive negative feedback pathway into a positive feedback pathway, amplifying the potency of the molecule in killing cancer cells (model in FIG. 40, Panel D).
In general terms: Real-time PCR tracks product formation cycle by cycle.

Data set [5] is described as follows: Mouse tolerability and pharmacokinetic study. The class given is in vivo. On the procedure: Vehicle was the same formulation (5/5/80 DMSO/Tween-80/Saline). The formulation was checked to be a clear solution and after administration, the animal was put back in its cage. For PK properties, plasma levels were measured at 0, 5, 15, 30, 60, 120, 240, 360, and 480 mins after drug administration. For tolerability work, bodyweights and observation of animal health were recorded each day through 5 days of dosing once daily. After 5 days, tissues were collected 8 hours after the last drug administration and split into one part for RNA-seq, homogenized in TRIzoI (Thermo #15596026), another part for histology, snap-frozen, and another part for measurement of drug levels where molar concentrations were recorded with the assumption of 1 g tissue ~1 mL. FFPE blocks (on snap-frozen tissue) and H & E staining were done by the Stanford Histology/Pathology Service Core, by Prof. Hannes Vogel, MD and Pauline Chu.
After treatment, mouse tissue was harvested for RNA-seq and histology.

Data set [6] has as its system OCILY19. As to the kind of experiment: Cell viability of OCILY19 DLBCL cells. The class given is cell-based. On the procedure: 30,000 cells were plated in 100 μL media per well of a 96 well plate and treated with drug for indicated times and doses. A resazurin-based indicator of cell health (PrestoBlue, ThermoFisher #P50200) was added for 1.5 hours after which the fluorescence ratio at 560/590 nm was recorded. The background fluorescence was subtracted and the signal was normalized to DMSO-treated cells. EC50 measurements on cell lines were done with 4 biological repeats by separate cell passages maintained by 3 independent investigators. Fit of dose-response curves to data and statistical analysis was performed using drc package in R using the four-parameter log-logistic function.
The level of expression of BCOR, NCOR and SMRT, which engage PRC and HDACs to produce epigenetic suppression of target genes varied among the cell lines and could also contribute to the variation in sensitivity. […] Among the cell lines tested there was no evidence that killing required TP53, nor was there evidence of repression of killing by endogenous BCL2 levels (FIG. 28, Panel B).

In data set [7] the target is T1, BCL6 and BRD4 (Homo sapiens, UniProt O60885+P41182).
T1 construct: N-terminal fusion of HaloTag to full-length BCL6; N-terminal fusion of nanoLuc (nano-luciferase) to full-length BRD4 (Promega #N169A); host or cells: HEK293T
Nature of the data set: BCL6-BRD4 nanoBRET assay in HEK cells. The class given is cell-based. Particulars: C- and N-terminally labeled BCL6 with N-terminally labeled BRD4, HEK cells. On the procedure:
The conditions and methods for nanoBRET, a well-recognized assay of in vivo target engagement, are described in PMID 26006698.
A 12-point dose-response curve with 3 technical replicates for each TCIP was carried out and corrected BRET ratios were calculated according to manufacturer assay protocol (Promega #TM439). Data was fit using the R package drc using the four-parameter log-logistic function.
(In general: In BRET a luciferase serves as donor, and the signal depends on an acceptor being close.)

[8] abbreviates: C57BL/6 mice, 10 mg/kg IP once daily for 5 days.
The mark [9] stands for this setting: RNA-seq, 10 mg/kg IP q.d. 5 days.

From US12685777B2, “Compositions, systems, and methods for modulating a target gene” (The Board of Trustees of the Leland Stanford Junior …, priority 2022, dated 2026) come the findings set out here.

What is called EC50 is the concentration giving half of the maximal effect. Consider `CNC(=O)COc1cc2cc(Nc3nc(N4CCC(C(=O)NCCCCCCCNC(=O)C[C@@H]5N=C(c6ccc(Cl)cc6)c6c(sc(C)c6C)-n6c(C)nnc65)CC4)ncc3Cl)cc(OC)c2n(C)c1=O` [TCIP1], for which the “Activation of BCL6 reporter” value in data set [1] is recorded as “about 25 fold”. In addition, in data set [1] (read-out: EC50 of BCL6 reporter activation), the EC50 is 5 nM. Further, the “Time to detectable apoptosis” value in data set [2] is 4 to 8 h. In addition, the Cell cycle block result in data set [3] (KARPAS422) is “both a G1/S and G2/M block”. In addition, the “Cell cycle phases in which cell death occurs (TUNEL)” value in data set [3] (KARPAS422, 100 nM) is given as “all phases of the cell cycle”. Besides, the “Time to upregulation of the long isoform of BCL6 mRNA” value in data set [4] lay within 1 to 2 h. Also, in data set [5] (setting [8]), the Body weight change result is “no significant changes in mouse body weight”; the “H & E staining and examination of tissue” value is given as “did not reveal noticeable abnormalities”; the Tolerability entry is listed as “well-tolerated with no adverse effects noticed”. Moreover, in data set [5] (setting [9]), the “Genes downregulated in the liver” value was 167 genes, the “Genes downregulated in the lung” value amounted to 204 genes, the “Genes downregulated in the spleen” value is listed as 2,471 genes and the “Genes upregulated in the liver” value was 255 genes. In data set [5] (setting [9]), the “Genes upregulated in the lung” value was found to be 301 genes and the “Genes upregulated in the spleen” value was 2,785 genes. In data set [6], the “Response of a DLBCL line with no detectable BCL6” value was “little or no response”.
On to `CNC(=O)COc1cc2cc(Nc3nc(N4CCC(C(=O)NCCCCCCCNC(=O)C[C@@H]5N=C(c6ccc(Cl)cc6)c6c(sc(C)c6C)-n6c(C)nnc65)CC4)ncc3Cl)cc(OC)c2n(C)c1=O` [JWZ-7-7, (S)-1-(5-chloro-4-((8-methoxy-1-methyl-3-(2-(methylamino)-2-oxoethoxy)-2-oxo-1,2-dihydroquinolin-6-yl)amino)pyrimidin-2-yl)-N-(7-(2-(4-(4-chlorophenyl)-2,3,9-trimethyl-6H-thieno[3,2-f][1,2,4]triazolo[4,3-a][1,4]diazepin-6-yl)acetamido)heptyl)piperidine-4-carboxamide], for which the “nanoBRET signal of proximity” value in data set [7] is reported as “generated a specific signal of proximity”.
